Values of other authors in EP0454783B1, “SITE SPECIFIC IN-VIVO ACTIVATION OF THERAPEUTIC DRUGS” (Akzo Nobel N.V., priority 1989, dated 1990).

Target: lysozyme (Gallus gallus, UniProt P00698)
Details: Imoto et al, 1972

Sequence of lysozyme (P00698 19-147): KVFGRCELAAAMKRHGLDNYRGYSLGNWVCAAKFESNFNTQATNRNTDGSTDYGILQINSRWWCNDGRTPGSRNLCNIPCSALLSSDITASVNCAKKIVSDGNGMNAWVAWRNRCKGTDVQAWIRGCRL

fold higher rate of cleavage by lysozyme than chitotriose: 30,000 fold
SMILES: CC(=O)N[C@H]1[C@H](O[C@H]2[C@H](O)[C@@H](NC(C)=O)[C@H](O[C@H]3[C@H](O)[C@@H](NC(C)=O)C(O)O[C@@H]3CO)O[C@@H]2CO)O[C@H](CO)[C@@H](O[C@@H]2O[C@H](CO)[C@@H](O[C@@H]3O[C@H](CO)[C@@H](O[C@@H]4O[C@H](CO)[C@@H](O)[C@H](O)[C@H]4NC(C)=O)[C@H](O)[C@H]3NC(C)=O)[C@H](O)[C@H]2NC(C)=O)[C@@H]1O (stereo partly shown) [chitohexaose]
